Laboratory results: patent US20230406843A1, “Progranulin Modulators and Methods of Using the Same” (ARKUDA THERAPEUTICS, priority 2020, published 2023)

Test system: progranulin
Assay: Progranulin induction cellular assay (ELISA of secreted mouse PGRN)
Assay type: cell-based
Details: progranulin induction assay; mouse pMG, primary cortical neurons and BV-2 cell lines named, cell type not given; ELISA-based readout; read-out: EC50
Procedure: Cellular Assays: Progranulin induction assay. To measure the efficacy of compounds, a progranulin induction cellular assay in mouse primary microglia (pMG), primary cortical neurons, and BV-2 cell lines is used. BV-2 cells are split the day before plating into a 96 well plate format at approximately 80%. Cells should be plated the day before and allowed for 1 hour attachment period and for 16 hour incubation. Levels of progranulin secreted into the cell culture medium or retained in the cell lysate can be quantified using an ELISA-based readout and measurement of secreted mouse PGRN in the medium was assessed by the methodology published by Ghidoni et al. 2012. Standard ELISA kits to measure PGRN are available from vendors such as Adipogen, R&D, and Biovendor.
Table B below presents the results of a progranulin induction assay as described above.

SMILES	EC50
NCC1COC(C(=O)N2CCc3ccccc3[C@@H]2c2ccc(F)cc2)C1 (mixture of isomers) [Compound 5014, ((2R)-4-(aminomethyl)tetrahydrofuran-2-yl)((S)-1-(4-fluorophenyl)-3,4-dihydroisoquinolin-2(1H)-yl)methanone]	501 nM
NC[C@@]1(O)COC(C(=O)N2CCc3ccccc3[C@@H]2c2ccc(F)cc2)C1 (single isomer, unassigned) [Compound 5004]	164 nM
NC[C@]1(O)COC(C(=O)N2CCc3ccccc3[C@@H]2c2ccc(F)cc2)C1 (single isomer, unassigned) [Compound 5005]	216 nM
NCC1(O)COC(C(=O)N2CCc3ccccc3[C@@H]2c2ccc(F)cc2)C1 (single isomer, unassigned) [Compound 5006]	143 nM
NCC1(O)COC(C(=O)N2CCc3ccccc3[C@@H]2c2ccc(F)cc2)C1 (single isomer, unassigned) [Compound 5007]	140 nM
N[C@H]1CC[C@@H](C(=O)N2CCc3ccccc3[C@@H]2c2ccc(F)cc2)OC1 (single isomer, unassigned) [Compound 5016]	199 nM
N[C@@H]1CC[C@H](C(=O)N2CCc3ccccc3[C@@H]2c2ccc(F)cc2)OC1 (single isomer, unassigned) [Compound 5017]	91 nM
N[C@@H]1CC[C@@H](C(=O)N2CCc3ccccc3[C@H]2c2ccc(F)cc2F)OC1 (single isomer, unassigned) [Compound 5019]	99 nM
N[C@]12CC[C@](C(=O)N3CCc4ccccc4[C@@H]3c3ccc(F)cc3)(C1)OC2 (single isomer, unassigned) [Compound 5021]	148 nM
N[C@]12CC[C@](C(=O)N3CCc4ccccc4[C@H]3c3ccc(F)cc3)(C1)OC2 (single isomer, unassigned) [Compound 5023]	212 nM
N[C@H]1CCO[C@H](C(=O)N2CCc3ccccc3[C@@H]2c2ccc(F)cc2)C1 (single isomer, unassigned) [Compound 5027]	488 nM
N[C@@H]1CCO[C@@H](C(=O)N2CCc3ccccc3[C@@H]2c2ccc(F)cc2)C1 (single isomer, unassigned) [Compound 5028]	42 nM

More lines, now with the values ahead:

EC50	SMILES
500 nM	O=C([C@@H]1C[C@@](O)(CNCCO)CO1)N1CCc2ccccc2[C@@H]1c1ccc(F)cc1 (single isomer, unassigned) [Compound 5038]
357 nM	O=C([C@@H]1C[C@](O)(CNCCO)CO1)N1CCc2ccccc2[C@@H]1c1ccc(F)cc1 (single isomer, unassigned) [Compound 5039]
173 nM	O=C([C@H]1C[C@@](O)(CNCCO)CO1)N1CCc2ccccc2[C@@H]1c1ccc(F)cc1 (single isomer, unassigned) [Compound 5040]
163 nM	O=C([C@H]1CCNCCO1)N1CCc2ccccc2[C@@H]1c1ccc(F)cc1 (single isomer, unassigned) [Compound 5044]
78 nM	O=C([C@@H]1CCNCCO1)N1CCc2ccccc2[C@@H]1c1ccc(F)cc1 (single isomer, unassigned) [Compound 5045]
62 nM	NC[C@]1(O)CC[C@@H](C(=O)N2CCc3ccccc3[C@@H]2c2ccc(F)cc2)OC1 (single isomer, unassigned) [Compound 5046]
86 nM	NC[C@@]1(O)CC[C@@H](C(=O)N2CCc3ccccc3[C@@H]2c2ccc(F)cc2)OC1 (single isomer, unassigned) [Compound 5047]
948 nM	O=C([C@@H]1C[C@@H](NCCO)CO1)N1CCc2ccccc2[C@@H]1c1ccc(F)cc1 (single isomer, unassigned) [Compound 5066]
767 nM	O=C([C@@H]1C[C@H](NCCO)CO1)N1CCc2ccccc2[C@@H]1c1ccc(F)cc1 (single isomer, unassigned) [Compound 5067]
252 nM	N[C@@]1(CO)CO[C@@H](C(=O)N2CCc3ccccc3[C@@H]2c2ccc(F)cc2)C1 (single isomer, unassigned) [Compound 5071]
